Test results taken from patent publication US8754036B2, “Method for treating neuropathic pain” (National University Corporation Nagoya University, priority 2007, dated 2014).

Test system: neurons from primary cortical nerve tissue
Assay: Suppression of Rho kinase activation (neurite lengths, keratan sulfate, Y27632)
Format: cell-based, mice
Description: Next, participation of Rho kinase was investigated in order to investigate the action mechanism of keratanase II in the above Experiment 1. The neurons were seeded onto an 8-well chamber to which a test sample was applied by the same manner as in the method of Experiment 1. Twenty-four hours after starting the incubation of the neurons, 15 μM of Y27632 (Rho kinase inhibitor, Sigma) was added to the neurons followed by incubating for 24 hours more. After that, the chamber was fixed with 4% of paraformaldehyde and the neurons were identified by an immunohistochemical means with Neuronal Class IIIβ tubulin (TUJ1) antibody (COVANCE). The neurite lengths were measured of from 80 to 90 neurons per condition, an average value thereof was calculated and shown by a graph. The test sample was the following four types.
(1) that which was applied with 25 μg/mL of poly-L-lysine (Sigma; hereinafter, the same) followed by being applied with 10 μg/mL of laminin (BD Biosciences; hereinafter, the same).
(2) that which was applied with 25 μg/mL of poly-L-lysine followed by being applied with 10 μg/mL of laminin and 20 μg/mL of keratan sulfate (Seikagaku Corporation; hereinafter, the same).
(3) that which was applied with 25 μg/mL of poly-L-lysine followed by being applied with 10 μg/mL of laminin and 40 μg/mL of keratan sulfate. […]

Row | release of inhibiting action for elongation of neurite lengths induced by keratan sulfate (keratan sulfate on poly-L-lysine/laminin, Y27632 15 μM or Ks36 keratanase II 0.01 U/mL without Y27632) | effect on elongation of the neurite lengths (keratan sulfate 20 or 40 μg/mL on poly-L-lysine/laminin) | Molecule
1 | released |  | C[C@@H](N)[C@H]1CC[C@H](C(=O)Nc2ccncc2)CC1 [Y27632]
2 |  | induces the inhibition | keratan sulfate
